Laboratory results published in patent US8029980B2, “Identification and use of agents that modulate oncogenic transcription agent activity” (The Board of Trustees of the University of Illinois, priority 2006, dated 2011).
Entries after “also recorded” stand apart in the source; their conditions may differ.

Assays:
[1] = tested on: NB7 and NB7-casp8 neuroblastoma cells; test: FoxM1 and cleaved caspase-3 immunoblot in neuroblastoma cells; format: cell-based; conditions: 24 hrs
Experimental: FIG. 11. […] Cells were treated with Siomycin A, thiostrepton or DMSO, harvested 24 hrs later and the lysates were used to determine proteins levels by immunoblotting with antibodies specific for FoxM1, cleaved caspase-3 and β-actin (AS441, Sigma).

[2] = tested on: Breast cancer cell lines BT-474, MDA-MB-231, T-47D and ZR-75-1; test: FoxM1 and cleaved caspase-3 immunoblot in breast cancer cell lines; format: cell-based, human; conditions: 5 μM, 48 hrs
Experimental: FIG. 7. […] Breast cancer cell lines BT-474, MDA-MB-231, T-47D and ZR-75-1 were treated with 5 μM Siomycin and thiostrepton, respectively, for 48 hrs and the cell lysates were analyzed for the levels of FoxM1 and cleaved caspase-3 by immunoblotting.
(§1) Immunoblotting was performed as described (18-20) with antibodies specific for p21 (556431; BD Pharmingen), survivin (sc-10811; Santa Cruz), cleaved caspase-3 (9664; Cell Signaling), and β-actin (A5441; Sigma) antibodies. Immunoblot for FoxM1 was done using the previously generated rabbit antisera (2), and phospho-FoxM1 was detected using the MPM2 monoclonal antibody (Upstate Biotechnology) which recognizes the phosphorylated protein sequence phosphoserine/phosphothreonine-proline.

[3] = tested on: Leukemia cell lines CEM, HL60 and U937; test: FoxM1 and cleaved caspase-3 immunoblot in leukemia cell lines; format: cell-based, human; conditions: 5 μM, 48 hrs
Experimental: FIG. 10. […] Leukemia cell lines CEM, HL60 and U937 were treated with 5 μM Siomycin A and thiostrepton, respectively, for 48 hrs and the cell lysates were analyzed for the levels of FoxM1 and cleaved caspase-3 by immunoblotting.
as §1
Next we treated leukemia cell lines with mutant p53 CEM, HL60 and U937 with 5 μM of these compounds for 48 hrs and the cell lysates were analyzed for the levels of FoxM1 and cleaved caspase-3 by immunoblotting.

FoxM1 = target: T1, FoxM1 (Homo sapiens, UniProt Q08050); test: FoxM1-responsive firefly luciferase reporter assay in C3-Luc cells; format: cell-based; conditions: C3-Luc cells, 1 μg/mL doxycycline (60-fold induction), 5 μM compound, 24 hrs
T1 construct: expressed in transfected cells; host or cells: U2OS clone C3 / C3-Luc
T1 sequence (Q08050 1-748 isoform Q08050-2): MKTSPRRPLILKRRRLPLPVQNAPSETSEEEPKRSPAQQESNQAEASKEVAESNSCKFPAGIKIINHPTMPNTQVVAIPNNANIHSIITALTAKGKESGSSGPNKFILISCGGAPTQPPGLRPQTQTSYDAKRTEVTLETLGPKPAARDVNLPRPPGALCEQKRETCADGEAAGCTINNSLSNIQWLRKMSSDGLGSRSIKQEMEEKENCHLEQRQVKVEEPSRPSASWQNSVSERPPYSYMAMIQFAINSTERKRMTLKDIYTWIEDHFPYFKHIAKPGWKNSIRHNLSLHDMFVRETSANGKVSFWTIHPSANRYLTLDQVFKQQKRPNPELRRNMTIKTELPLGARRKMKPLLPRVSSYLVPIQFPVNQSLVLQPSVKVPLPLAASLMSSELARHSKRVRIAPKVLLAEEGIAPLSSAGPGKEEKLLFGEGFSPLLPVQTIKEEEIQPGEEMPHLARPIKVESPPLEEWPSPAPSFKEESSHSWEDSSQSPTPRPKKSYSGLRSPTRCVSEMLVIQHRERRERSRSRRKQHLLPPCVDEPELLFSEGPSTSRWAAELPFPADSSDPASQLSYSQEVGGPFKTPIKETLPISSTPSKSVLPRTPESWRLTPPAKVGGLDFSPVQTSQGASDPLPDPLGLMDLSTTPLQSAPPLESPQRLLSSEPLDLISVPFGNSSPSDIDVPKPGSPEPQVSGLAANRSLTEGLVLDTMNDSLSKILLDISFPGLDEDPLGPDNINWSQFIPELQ
Experimental: FIG. 6. Thiostrepton and Siomycin A both inhibit FoxM1 transcriptional activity. […] The next day, the luciferase activity was measured with the Dual-Luciferase reporter assay system (E1910; Promega) according to the manufacturer's instructions.
The development of U2OS clone C3 cell line with doxycyclin inducible FoxM1-GFP fusion protein has been described before (17). This cell line was transfected with a plasmid expressing firefly luciferase under the control of 6× FoxM1 responsive (FoxRE) promoter (17), along with pcDNA3.1 (Invitrogen, Carlsbad, Calif.) plasmid that expresses neomycin phospho-transferase. […] This clone was further transfected with pRL-CMV (Promega) that expresses renilla luciferase along with pLPCX-puro (Clontech), and the cells were selected in 2 μg/ml puromycin. This cell line which expresses FoxM1-dependent firefly luciferase and constitutive renilla luciferase was named as C3-Luc and used for the screening of compound libraries (Challenge set and Diversity set) from the National Cancer Institute.
For high-throughput screening, the C3-Luc cells were grown in 96-well plates and treated overnight with a combination of 1 μg/ml doxycycline and 10 μM of compounds from the library. Next day, the firefly and renilla luciferase activities were measured with the Dual Glo system (E2940; Promega).
For the other luciferase assay experiments, the cells were treated as indicated in the FIG. 1 legend and the luciferase activity was measured using the Dual Luciferase reporter assay system (E1910; Promega) according to the manufacturer's instructions.

[4] = tested on: Liver cancer cell lines Huh7, Hep-3B and SK-Hep; test: FoxM1 and cleaved caspase-3 immunoblot in liver cancer cell lines; format: cell-based, human; conditions: 10 μM, 48 hrs
Experimental: FIG. 9. […] Liver cancer cell lines Huh7, Hep-3B and SK-Hep were treated with 10 μM Siomycin A and thiostrepton, respectively, for 48 hrs, and the cell lysates were analyzed for the levels of FoxM1 and cleaved caspase-3 by immunoblotting.
as §1
First, we treated liver cancer cell lines Huh7, Hep-3B and SK-Hep that have deleted or mutant p53 with these compounds for 48 hrs, and the cell lysates were analyzed for the levels of FoxM1 and cleaved caspase-3 by immunoblotting.

SMILES: C=C(NC(=O)C(=C)NC(=O)c1csc(C2=N[C@@H]3c4csc(n4)[C@H]4NC(=O)c5csc(n5)[C@H]([C@](C)(O)[C@@H](C)O)NC(=O)[C@H]5CSC(=N5)/C(=C/C)NC(=O)[C@H]([C@@H](C)O)NC(=O)c5csc(n5)[C@]3(CC2)NC(=O)[C@H](C)NC(=O)C(=C)NC(=O)[C@H](C)NC(=O)[C@H]([C@@H](C)CC)N[C@@H]2C=Cc3c([C@H](C)O)cc(nc3[C@H]2O)C(=O)O[C@@H]4C)n1)C(N)=O [thiostrepton]
- apoptosis (cleaved caspase-3) ([1]; NB7 and NB7 with reconstituted caspase-8): induce apoptosis in these neuroblastoma cells independently from caspase-8
- FoxM1 protein expression ([1]; immunoblot): inhibit FoxM1 protein expression
- FoxM1 expression [2]: stronger inhibitor of FoxM1; also recorded: inhibit FoxM1 expression
- apoptosis (cleaved caspase-3) [2]: more efficient inducer of apoptosis than Siomycin A; also recorded: induce apoptosis
- FoxM1 expression [3]: inhibit FoxM1 expression
- apoptosis (cleaved caspase-3) [3]: induce apoptosis
- relative firefly luciferase activity (FoxM1 transcriptional activity) (FoxM1): efficiently reduced the value to basal levels
- FoxM1 protein expression [4]: repress FoxM1 protein expression
- apoptosis (cleaved caspase-3) [4]: induce apoptosis
